Measured values as given in article PMC10380385, “Synthesis, In Vitro, and In Vivo Investigations of Pterostilbene-Tethered Analogues as Anti-Breast Cancer Candidates” (International Journal of Molecular Sciences, 2023).
Values joined by “and” are separate entries in the source; they are usually repeats but may differ in a detail not shown here. Equal values may be shown once.

How the values were obtained:
[1] = system: MCF-7 cells; assay: MTT anti-proliferative assay, MCF-7; format: cell-based; details: Homo sapiens, MCF7, 48 h
Procedure: (§1) The in vitro anti-proliferative activity of all synthesized analogues against MDA-MB-231 and MCF-7 cells was tested using the 3-(4,5-dimethylthiazol-2-yl)-[…] (MTT) method. […] Usually, Dox has been used as a positive control in many basic studies, especially drug screening assay. […] In the meantime, the cytotoxic activity of 2K–2N, PTE, and Dox against MCF-10A (human breast epithelial cell line) was examined. […] By contrast, the substitution of a saturated six-membered nitrogen heterocyclic ring on the side chain is extremely favorable for enhancing anti-BC efficacy (2L–2N vs. 1, PTE, 2A–2J). Based on the preceding analysis, analogue 2L was selected as the most promising anti-BC agent and used in the follow-up study.
(§2) The human breast cancer cell lines MDA-MB-231 and MCF-7 were purchased from the Chinese Academy of Science and cultured in Dulbecco’s modified Eagle’s medium (DMEM, Gibco, New York, NY, USA) containing 10% fetal bovine serum (FBS), 2 mM L-glutamine, 100 U/mL penicillin, and 100 μg/mL streptomycin. Then, the cells were maintained in a humidified incubator at 37 °C in the presence of 5% CO2.
(§3) The MTT assay was used to test the effect of PTEs on cell viability. The MDA-MB-231 (3 × 10^3 cells/well) and MCF-7 (4 × 10^3 cells/well) cells were seeded in a 96-well plate and cultured at 37 °C in a 5% CO2 incubator overnight. Afterwards, the medium was replaced with different concentrations of the title compounds (1, 3, 10, 30, and 100 μM). After incubation for 48 h, 10 μL of MTT solution (5 mg/mL) was added to each well and incubated for another 4 h. The optical density (OD) of the samples was measured using a microplate reader (Biotek, Burlington, VT, USA) at 570 nm. The inhibition rate (%) = [A570 (control) − A570 (compound)]/A570 (control) × 100%. The IC50 values were calculated using SPSS software version 17.0 (SPSS Inc., Chicago, IL, USA).

[2] = system: MDA-MB-231 cells; assay: MTT anti-proliferative assay, MDA-MB-231; format: cell-based; details: Homo sapiens, 48 h
Procedure: as §1, §2, §3

[3] = system: MCF-10A (human breast epithelial cell line); assay: Cytotoxic activity against MCF-10A; format: cell-based; details: cytotoxicity, normal breast epithelial cells
Procedure: as §1

[4] = system: apoptosis-related proteins in MCF-7 cells; assay: Western blot of apoptosis-related proteins, MCF-7; format: cell-based, human; details: MCF-7, 2L 1.1, 3.3, 10 μM, 24 h
Procedure: (§4) MDA-MB-231 and MCF-7 cells were cultured in a 6-well plate with the density of 3 × 10^5 cells/well and treated with different concentrations of 2L (0, 1.1, 3.3, 10 μM) for 24 h. The cells were lysed in radioimmunoprecipitation assay (RIPA) buffer (Beyotime, Shanghai, China) containing 1% protease inhibitor cocktail and 1 mM phenylmethylsulfonyl fluoride (PMSF, Sigma-Aldrich, St. Louis, MO, USA). After centrifugation, the supernatant was collected and quantified by BCA assay (Beyotime). Lysates were mixed with the loading buffer (5 ×) and denatured by boiling for 10 min. Then, the equivalent samples were separated via 10–15% sodium dodecyl–sulfate polyacrylamide gel electrophoresis (SDS-PAGE), transferred to 0.45 µm immunoblot poly(vinylidene fluoride) (PVDF) membranes (Merck Millipore, Darmstadt, Germany) at 4 °C, and blocked in 5% skimmed milk in TBST for 1 h at room temperature. The membranes were incubated overnight at 4 °C with specific primary antibodies. After washing three times with TBST, the PVDF membranes were incubated with horseradish peroxidase (HRP)-conjugated secondary antibodies at rt for 1 h. Lastly, the resulting bands were visualized by a Bio-Rad ChemiDoc imaging system ([…]) using enhanced chemiluminescence reagents (Millipore, Billerica, MA, USA). The details of the corresponding primary antibodies were as follows: Bax (2772; Cell Signaling Technology), Bcl-2 (3498; Cell Signaling Technology), cleaved caspase-3 (9661; Cell Signaling Technology), cleaved caspase-9 (9505; Cell Signaling Technology), and PARP (9542; Cell Signaling Technology). The HRP-secondary antibodies were also obtained from Cell Signaling Technology (Boston, MA, USA).

[5] = system: MCF-7 cells; assay: DNA content / cell cycle of PI-stained cells by flow cytometry, MCF-7; format: cell-based, human; details: MCF-7, 10.0 μM
Text: (§5) It is commonly acknowledged that […] DNA fragmentation is a crucial hallmark of cell apoptosis. Next, we assessed the influence of 2L on the DNA content of PI-stained BC cells using flow cytometry. […] In turn, treatment with 2L led to an apparent enhancement of the number of MCF-7 cells, from 51.7% to 63.0%. […] An augmentation of DNA distribution in the SubG1 peak was representative of the occurrence of apoptosis in 2L-exposed groups, which further confirmed that 2L could induce the apoptosis of BC cells. In addition, the quantitative analysis of DNA distribution for the subG1, G0/G1, S, and G2/M phases appeared to show similar alterations (Figure 4B,D).

[6] = system: MDA-MB-231 cells; assay: DNA content / cell cycle of PI-stained cells by flow cytometry, MDA-MB-231; format: cell-based, human; details: MDA-MB-231, 10.0 μM
Text: as §5

[7] = system: MDA-MB-231 cells; assay: Annexin V-FITC/PI apoptosis flow cytometry, MDA-MB-231; format: cell-based, human
Procedure: (§6) MDA-MB-231 and MCF-7 cells (3 × 10^5 cells/well) were seeded into 6-well plates. After that, the cells were treated with 2L (0, 10 μM) for 24 h. Cells were harvested, washed repeatedly with cold phosphate-buffered saline (PBS), and resuspended in 195 μL of binding buffer. Then, 4 μL annexin V-FITC reagent (Beyotime) and 8 μL propidium iodide (PI, Beyotime) were added to the samples and gently mixed. After incubation for 15 min in the dark at room temperature, the stained cells were immediately detected by a FACScan flow cytometer (BD Biosciences, San Jose, CA, USA) and analyzed with the annexin V-FITC/PI apoptosis method.

[8] = system: MDA-MB-231 xenograft; assay: MDA-MB-231-derived xenograft mouse model; format: in vivo; details: for tumor growth inhibition (TGI): intraperitoneal, every other day, 10 treatments, by tumor weight
Procedure: BALB/c nude mice (female, 6–7 weeks) were purchased from Changsheng Biotechnology Co., Ltd. (Liaoning, China). MDA-MB-231 cells (5 × 10^6 cells/mouse) were injected subcutaneously into the right back of the nude mice. When the tumor volume reached approximately 55 mm^3, the female mice were randomly divided into two treatment groups (25, 50 mg/kg) and a vehicle group (equal volume of normal saline) with five mice in each group. Throughout the experiment, 2L and saline were intraperitoneally injected every other day for 10 treatments. At the same time, the changes in tumor volume and body weight of the nude mice were tracked and recorded. The tumor volumes were assessed using the formula: V (mm^3) = (length × width^2)/2. At the end of the experimental period, tumor tissues were harvested, weighed, and collected. The TGI rate was calculated by the average tumor weight of the 2L-treated and control groups.

[9] = system: MCF-7 cells; assay: Mitochondrial membrane potential JC-1 assay, MCF-7; format: cell-based, human; details: MCF-7, 24 h, flow cytometry
Procedure: (§7) The MMP was assayed using a JC-1 assay kit (Beyotime, Shanghai, China) according to the manufacturer’s instructions. In brief, MDA-MB-231 and MCF-7 cells were plated in 24-well plates at a density of 6 × 10^4 cells per well. After intervention with 2L (0, 10 μM) for 24 h, the cells were washed once with PBS. Cell culture solution (0.5 mL) and JC-1 working solution (0.5 mL) were successively added, mixed well, and incubated at 37 °C for 20 min in the dark. After washing twice with 1 × JC-1 staining buffer, the cells were resuspended in fresh culture medium. The graphical results were observed under a fluorescence microscope.
(§8) MDA-MB-231 and MCF-7 cells were incubated in 6-well plates at a density of 3 × 10^5 cells per dish and exposed to 2L for 24 h. Cell culture media (1 mL) and JC-1 staining working solution (1 mL) were added, thoroughly mixed, and incubated at 37 °C for 20 min. After washing twice with 1 × JC-1 staining buffer, the cells were collected and resuspended in 500 μL JC-1 staining buffer and then instantly analyzed using a flow cytometry.

[10] = system: MCF-7 cells; assay: Intracellular ROS, DCFH-DA, MCF-7; format: cell-based, human; details: MCF-7, 2L 24 h, vs control
Procedure: (§9) The Reactive Oxygen Species Assay Kit was used to measure intracellular ROS levels. MDA-MB-231 and MCF-7 cells (6 × 10^4 cells/well) were seeded onto 24-well plates and treated with 2L (0, 10 μM) for 24 h. Subsequently, the cells were washed with PBS and stained with dichlorodihydrofluorescein diacetate (DCFH-DA, 10 μM) at 37 °C for 20 min in the dark. Following three washes with serum-free DMEM, the fluorescence alteration was photographed using a fluorescence microscope.
(§10) MDA-MB-231 and MCF-7 cells were plated in 6-well plates with a density of 3 × 10^5 cells/well. After exposure to 2L for 24 h, the cells were incubated with 10 μM DCFH-DA at 37 °C for 20 min in the dark. Later, the cells were slightly washed three times with serum-free DMEM and centrifuged (1000 rpm, 5 min). The collected cells were resuspended in PBS and loaded into a flow cytometer.

[11] = system: MDA-MB-231 cells; assay: Mitochondrial membrane potential JC-1 assay, MDA-MB-231; format: cell-based, human; details: MDA-MB-231, 24 h, flow cytometry
Procedure: as §7, §8

[12] = system: MDA-MB-231 cells; assay: Intracellular ROS, DCFH-DA, MDA-MB-231; format: cell-based, human; details: MDA-MB-231, 2L 24 h, vs control
Procedure: as §9, §10

[13] = system: apoptosis-related proteins in MDA-MB-231 cells; assay: Western blot of apoptosis-related proteins, MDA-MB-231; format: cell-based, human; details: MDA-MB-231, 2L 1.1, 3.3, 10 μM, 24 h
Procedure: as §4

[14] = system: MCF-7 cells; assay: Annexin V-FITC/PI apoptosis flow cytometry, MCF-7; format: cell-based, human
Procedure: as §6

**Q.** Which IC50 [1] does the source give for `COc1cc(/C=C/c2ccc(OCCCN3CCOCC3)cc2)cc(OC)c1` [Compound 2M, (E)-4-(3-(4-(3,5-dimethoxystyryl)phenoxy)propyl)morpholine] here?
**A.** 42 ± 0.79 µM

**Q.** And the IC50 [2]?
**A.** 49.3 ± 2.48 µM

**Q.** What about the IC50 [3] of the same compound?
**A.** 70.39 ± 0.43 µM

**Q.** What does the source list for `COc1cc(/C=C/c2ccc(OCCCN3CCCCC3)cc2)cc(OC)c1` [Compound 2L, (E)-1-(3-(4-(3,5-dimethoxystyryl)phenoxy)propyl)piperidine]?
**A.** expression of Bcl-2 [4]: markedly downregulated; level of Bax [4]: upregulated; protein expression of cleaved caspase-3 [4]: increase; protein expression of cleaved caspase-9 [4]: increase; protein level of cleaved PARP [4]: effectively elevate; percentage of cells in subG1 [5]: 7.83%; proportion of cells in G0/G1 phase [5]: 63.0%; IC50 [1]: 11.7 ± 0.55 µM; percentage of cells in subG1 [6]: 7.99%; proportion of cells in G0/G1 phase [6]: 61.7%; apoptosis ratio with NAC ([7]; MDA-MB-231, 2L 10 μM + 5 mM NAC): 8.8%; apoptosis ratio with Z-VAD-FMK ([7]; MDA-MB-231, 2L 10 μM + Z-VAD-FMK 20 μM): 6.2%; apoptotic percentage (early and late) ([7]; MDA-MB-231, 2L 10 μM, 24 h): 12.7% and 16.1% and 13.1%; tumor growth inhibition (TGI) ([8]; 25 mg/kg): 42.0%; tumor growth inhibition (TGI) ([8]; 50 mg/kg): 69.9%; toxicity in nude mice (body weight fluctuation) ([8]; 25 and 50 mg/kg, whole study): no obvious toxicity; level of Bcl-2 protein in tumor tissues ([8]; Western blot, vs control group): decreased; protein expression of Bax in tumor tissues ([8]; Western blot, vs control group): noticeably increased; protein expression of cleaved PARP in tumor tissues ([8]; Western blot, vs control group): noticeably increased; ΔΨm level after 2L [9]: 85.0%; IC50 [2]: 10.4 ± 0.4 µM; mean ROS-associated fluorescence intensity [10]: greatly increased; IC50 [3]: 68.9 ± 0.93 µM; ΔΨm level after 2L [11]: 83.9%; mean ROS-associated fluorescence intensity [12]: greatly increased; expression of Bcl-2 [13]: markedly downregulated; level of Bax [13]: upregulated; protein expression of cleaved caspase-3 [13]: increase; protein expression of cleaved caspase-9 [13]: increase; protein level of cleaved PARP [13]: effectively elevate; apoptosis ratio with NAC ([14]; MCF-7, 2L 10 μM + 5 mM NAC): 6.7%; apoptosis ratio with Z-VAD-FMK ([14]; MCF-7, 2L 10 μM + Z-VAD-FMK 20 μM): 6.5%; apoptotic percentage (early and late) ([14]; MCF-7, 2L 10 μM, 24 h): 14.0% and 14.5% and 12.2%

**Q.** `COc1cc(/C=C/c2ccc(OCCCn3ccnc3)cc2)cc(OC)c1` [Compound 2K, (E)-1-(3-(4-(3,5-dimethoxystyryl)phenoxy)propyl)-1H-imidazole] was tested. Which IC50 [1] did it give?
**A.** 21 ± 0.56 µM

**Q.** What about the IC50 [2] of the same compound?
**A.** 18.7 ± 0.71 µM

**Q.** What about the IC50 [3] of the same compound?
**A.** 49 ± 1.31 µM
